According to patent publication US7579356B2, “Thia-tetraazaacenaphthylene kinase inhibitors” (Janssen Pharmaceutica NV, priority 2005, dated 2009):

How the values were obtained:
[1] = target: T1, EGFR (Homo sapiens, UniProt P00533); experiment: EGFR Kinase Assay; type: biochemical; conditions: for IC50: GST-EGFR, ATP 5 μM; for inhibition at 2 µM: test concentration of 2 μM, compounds without an IC50, read-out: EGFR inhibition in percent
T1 construct: The intracellular portion of EGFR started at nucleotide 2189 (corresponding to amino acid 667) and ended at the termination codon; made in house; host or cells: Sf9 insect cells (baculovirus)
T1 sequence (P00533 669-1210 limits assumed): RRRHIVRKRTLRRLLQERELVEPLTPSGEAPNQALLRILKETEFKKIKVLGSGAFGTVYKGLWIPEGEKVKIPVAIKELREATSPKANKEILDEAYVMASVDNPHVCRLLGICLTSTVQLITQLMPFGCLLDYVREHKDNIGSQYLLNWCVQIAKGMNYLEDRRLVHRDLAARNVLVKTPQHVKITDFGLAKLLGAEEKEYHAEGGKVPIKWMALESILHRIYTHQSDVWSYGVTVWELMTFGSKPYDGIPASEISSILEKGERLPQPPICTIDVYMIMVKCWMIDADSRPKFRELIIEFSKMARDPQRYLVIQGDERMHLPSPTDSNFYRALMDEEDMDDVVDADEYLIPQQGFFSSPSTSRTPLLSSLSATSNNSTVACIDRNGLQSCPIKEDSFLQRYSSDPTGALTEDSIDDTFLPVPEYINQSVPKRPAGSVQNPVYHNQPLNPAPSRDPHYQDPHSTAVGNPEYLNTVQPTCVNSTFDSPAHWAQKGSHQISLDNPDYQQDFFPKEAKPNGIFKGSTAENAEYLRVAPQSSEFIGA
Outline: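 GST-fused human EGFR intracellular domain (from aa 667), Sf9-expressed, phosphorylated biotinylated polyGluTyr with 5 μM ATP plus γ-33P ATP in Tris pH 8.0, MgCl2, vanadate, 1 mM DTT, 1 h at 30 °C. Streptavidin Flashplate scintillation read; triplicate 16-point half-log series from 200 uM; IC50 from % inhibition vs log concentration, else % inhibition at 2 μM.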

[2] = target: T2, HER-2 (Homo sapiens, UniProt P04626); experiment: HER-2 Kinase Assay; type: biochemical; conditions: value in parentheses
T2 construct: His6 with thrombin site (N); purchased Proqinase (Freiburg, Germany)
T2 sequence (P04626 679-1255): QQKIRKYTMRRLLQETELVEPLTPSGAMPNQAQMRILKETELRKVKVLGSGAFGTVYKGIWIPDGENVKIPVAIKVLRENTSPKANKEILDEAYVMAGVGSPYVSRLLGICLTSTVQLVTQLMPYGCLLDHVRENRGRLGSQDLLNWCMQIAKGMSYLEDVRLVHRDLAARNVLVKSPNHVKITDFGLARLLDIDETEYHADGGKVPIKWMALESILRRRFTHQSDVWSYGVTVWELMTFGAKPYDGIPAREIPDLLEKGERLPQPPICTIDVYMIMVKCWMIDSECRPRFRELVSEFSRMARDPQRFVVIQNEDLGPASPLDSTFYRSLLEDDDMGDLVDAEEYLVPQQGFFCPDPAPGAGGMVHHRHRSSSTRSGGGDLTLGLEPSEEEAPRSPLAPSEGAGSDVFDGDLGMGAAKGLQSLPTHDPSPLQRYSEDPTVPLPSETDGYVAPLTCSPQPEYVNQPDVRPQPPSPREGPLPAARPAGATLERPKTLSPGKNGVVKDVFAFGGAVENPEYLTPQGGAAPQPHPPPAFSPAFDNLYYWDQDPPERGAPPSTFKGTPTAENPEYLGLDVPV
Outline: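 GST/HIS6-tagged HER-2 aa 679–1255 kinase with biotinylated polyGluTyr (1.5 ng/μL), 1 μM ATP plus γ-33P-ATP, Mg2+/Mn2+, DTT, Hepes pH 7.5; 1 h at 30 °C. Substrate phosphorylation captured on streptavidin scintillation plates after EDTA/PBS washes; values are % inhibition at 1 μM or IC50.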

SMILES | IC50 [1] | IC50 [2] | inhibition at 2 µM [1]
O=C(Nc1ccc(CN2CCOCC2)cc1)c1sc2ncnc3c2c1NC(=O)N3c1ccc2nc(Cc3cccc(F)c3)[nH]c2c1 [Cpd 193, 5-[2-(3-fluoro-benzyl)-3H-benzoimidazol-5-yl]-4-oxo-4,5-dihydro-3H-1-thia-3,5,6,8-tetraaza-acenaphthylene-2-carboxylic acid (4-morpholin-4-ylmethyl-phenyl)-amide] | 704 nM | > 1000 nM | 
CN1CCC(NC(=O)c2sc3ncnc4c3c2NC(=O)N4c2ccc3nc(Cc4cccc(F)c4)[nH]c3c2)CC1 [Cpd 194, 5-[2-(3-fluoro-benzyl)-3H-benzoimidazol-5-yl]-4-oxo-4,5-dihydro-3H-1-thia-3,5,6,8-tetraaza-acenaphthylene-2-carboxylic acid (1-methyl-piperidin-4-yl)-amide] |  | 5770 nM | 31%
O=C(Nc1ccc(CN2CCCCC2)cc1)c1sc2ncnc3c2c1NC(=O)N3c1ccc(Br)cc1 [Cpd 195, 5-(4-bromo-phenyl)-4-oxo-4,5-dihydro-3H-1-thia-3,5,6,8-tetraaza-acenaphthylene-2-carboxylic acid (4-piperidin-1-ylmethyl-phenyl)-amide] | 97 nM | 94 nM | 
O=C(Nc1ccc(CN2CCOCC2)cc1)c1sc2ncnc3c2c1NC(=O)N3c1ccc(Br)cc1 [Cpd 196, 5-(4-bromo-phenyl)-4-oxo-4,5-dihydro-3H-1-thia-3,5,6,8-tetraaza-acenaphthylene-2-carboxylic acid (4-morpholin-4-ylmethyl-phenyl)-amide] | 206 nM | 122 nM | 
O=C(Nc1ccc(CN2CCCCC2)cc1)c1sc2ncnc3c2c1NC(=O)N3c1cccc(Oc2ccccc2)c1 [Cpd 197, 4-oxo-5-(3-phenoxy-phenyl)-4,5-dihydro-3H-1-thia-3,5,6,8-tetraaza-acenaphthylene-2-carboxylic acid (4-piperidin-1-ylmethyl-phenyl)-amide] | 39 nM | 175 nM | 
CN1CCN(Cc2ccc(NC(=O)c3sc4ncnc5c4c3NC(=O)N5c3cccc(Oc4ccccc4)c3)cc2)CC1 [Cpd 199, 4-oxo-5-(3-phenoxy-phenyl)-4,5-dihydro-3H-1-thia-3,5,6,8-tetraaza-acenaphthylene-2-carboxylic acid [4-(4-methyl-piperazin-1-ylmethyl)-phenyl]-amide] | 155 nM | 613 nM | 
COc1cc(NC(=O)c2sc3ncnc4c3c2NC(=O)N4c2cccc(Oc3ccccc3)c2)ccc1CN1CCOCC1 [Cpd 200, 4-oxo-5-(3-phenoxy-phenyl)-4,5-dihydro-3H-1-thia-3,5,6,8-tetraaza-acenaphthylene-2-carboxylic acid (3-methoxy-4-morpholin-4-ylmethyl-phenyl)-amide] | 89 nM | 130 nM | 
COc1cc(NC(=O)c2sc3ncnc4c3c2NC(=O)N4c2ccc(Br)cc2)ccc1CN1CCOCC1 [Cpd 201, 5-(4-bromo-phenyl)-4-oxo-4,5-dihydro-3H-1-thia-3,5,6,8-tetraaza-acenaphthylene-2-carboxylic acid (3-methoxy-4-morpholin-4-ylmethyl-phenyl)-amide] | 106 nM | 92 nM | 
COc1ccc(C(=O)c2sc3ncnc4c3c2NC(=O)N4c2ccc(Oc3ccccc3)cc2)cc1OC [Cpd 202] |  | > 100000 nM | 31%
O=C(Nc1ccc(CN2CCOCC2)c(F)c1)c1sc2ncnc3c2c1NC(=O)N3c1ccc(Oc2ccccc2)cc1 [Cpd 203, 4-oxo-5-(4-phenoxy-phenyl)-4,5-dihydro-3H-1-thia-3,5,6,8-tetraaza-acenaphthylene-2-carboxylic acid (3-fluoro-4-morpholin-4-ylmethyl-phenyl)-amide] | 35 nM | 60 nM | 
O=C(Nc1ccc(CN2CCCCC2)cc1)c1sc2ncnc3c2c1NC(=O)N3c1ccc([S+]([O-])c2ccccc2)cc1 (centres unmarked) [Cpd 205, 5-(4-benzenesulfinyl-phenyl)-4-oxo-4,5-dihydro-3H-1-thia-3,5,6,8-tetraaza-acenaphthylene-2-carboxylic acid (4-piperidin-1-ylmethyl-phenyl)-amide] | 689 nM | 1440 nM | 
CCOC(=O)C=Cc1ccc(NC(=O)c2sc3ncnc4c3c2NC(=O)N4c2ccc3nc(Cc4cccc(F)c4)[nH]c3c2)cc1 [Cpd 206, 3-[4-({5-[2-(3-fluoro-benzyl)-3H-benzoimidazol-5-yl]-4-oxo-4,5-dihydro-3H-1-thia-3,5,6,8-tetraaza-acenaphthylene-2-carbonyl}-amino)-phenyl]-acrylic acid ethyl ester] |  | ~100000 nM | 12%
CCOc1cc(NC(=O)c2sc3ncnc4c3c2NC(=O)N4c2ccc(Oc3ccccc3)cc2)ccc1CN1CCOCC1 [Cpd 207, 4-oxo-5-(4-phenoxy-phenyl)-4,5-dihydro-3H-1-thia-3,5,6,8-tetraaza-acenaphthylene-2-carboxylic acid (3-ethoxy-4-morpholin-4-ylmethyl-phenyl)-amide] | 16 nM | 15 nM | 
O=C(Nc1ccc(CN2CCOCC2)cc1)c1sc2ncnc3c2c1NC(=O)N3c1ccc(Oc2cccnc2)c(Cl)c1 [Cpd 208, 5-[3-chloro-4-(pyridin-3-yloxy)-phenyl]-4-oxo-4,5-dihydro-3H-1-thia-3,5,6,8-tetraaza-acenaphthylene-2-carboxylic acid (4-morpholin-4-ylmethyl-phenyl)-amide] | 133 nM | 57 nM | 
O=C(Nc1ccc(CN2CCCCC2)cc1)c1sc2ncnc3c2c1NC(=O)N3c1ccc(Oc2cccnc2)c(Cl)c1 [Cpd 209, 5-[3-chloro-4-(pyridin-3-yloxy)-phenyl]-4-oxo-4,5-dihydro-3H-1-thia-3,5,6,8-tetraaza-acenaphthylene-2-carboxylic acid (4-piperidin-1-ylmethyl-phenyl)-amide] | 101 nM | 72 nM | 
CCOC(=O)c1sc2ncnc3c2c1NC(=O)N3c1ccc(Sc2ccccc2)cc1 [Cpd 210, 4-oxo-5-(4-phenylsulfanyl-phenyl)-4,5-dihydro-3H-1-thia-3,5,6,8-tetraaza-acenaphthylene-2-carboxylic acid ethyl ester] | 615 nM | > 10000 nM | 
CN1CCC(NC(=O)c2sc3ncnc4c3c2NC(=O)N4c2ccc(Oc3ccccc3)cc2)CC1 [Cpd 211, 4-oxo-5-(4-phenoxy-phenyl)-4,5-dihydro-3H-1-thia-3,5,6,8-tetraaza-acenaphthylene-2-carboxylic acid (1-methyl-piperidin-4-yl)-amide] | 63 nM | 518 nM | 
CN(C)CCCNC(=O)c1sc2ncnc3c2c1NC(=O)N3c1ccc(Sc2ccccc2)cc1 [Cpd 212, 4-oxo-5-(4-phenylsulfanyl-phenyl)-4,5-dihydro-3H-1-thia-3,5,6,8-tetraaza-acenaphthylene-2-carboxylic acid (3-dimethylamino-propyl)-amide] | 36 nM | 168 nM | 
O=C(c1sc2ncnc3c2c1NC(=O)N3c1ccc(Oc2ccccc2)cc1)N1CCN(CCN2CCOCC2)CC1 [Cpd 213, 2-[4-(2-morpholin-4-yl-ethyl)-piperazine-1-carbonyl]-5-(4-phenoxy-phenyl)-3H,5H-1-thia-3,5,6,8-tetraaza-acenaphthylen-4-one] |  | > 10000 nM | 48%
CN1CCCN(C(=O)c2sc3ncnc4c3c2NC(=O)N4c2ccc(Oc3ccccc3)cc2)CC1 [Cpd 214, 2-(4-methyl-[1,4]diazepane-1-carbonyl)-5-(4-phenoxy-phenyl)-3H,5H-1-thia-3,5,6,8-tetraaza-acenaphthylen-4-one] | 1300 nM | > 10000 nM | 
CN1CCN(NC(=O)c2sc3ncnc4c3c2NC(=O)N4c2ccc(Oc3ccccc3)cc2)CC1 [Cpd 215, 4-oxo-5-(4-phenoxy-phenyl)-4,5-dihydro-3H-1-thia-3,5,6,8-tetraaza-acenaphthylene-2-carboxylic acid (4-methyl-piperazin-1-yl)-amide] | 121 nM | 4460 nM | 
CN1CCN(C(=O)c2sc3ncnc4c3c2NC(=O)N4c2ccc(Oc3ccccc3)cc2)CC1 [Cpd 216, 2-(4-methyl-piperazine-1-carbonyl)-5-(4-phenoxy-phenyl)-3H,5H-1-thia-3,5,6,8-tetraaza-acenaphthylen-4-one] | 780 nM | ~100000 nM | 
O=C(NCCc1ccccn1)c1sc2ncnc3c2c1NC(=O)N3c1ccc(Oc2ccccc2)cc1 [Cpd 217, 4-oxo-5-(4-phenoxy-phenyl)-4,5-dihydro-3H-1-thia-3,5,6,8-tetraaza-acenaphthylene-2-carboxylic acid (2-pyridin-2-yl-ethyl)-amide] | 225 nM | > 100000 nM | 
CN1CCN(Cc2ccc(NC(=O)c3sc4ncnc5c4c3NC(=O)N5c3ccc(Sc4ccccc4)cc3)cc2)CC1 [Cpd 218, 4-oxo-5-(4-phenylsulfanyl-phenyl)-4,5-dihydro-3H-1-thia-3,5,6,8-tetraaza-acenaphthylene-2-carboxylic acid [4-(4-methyl-piperazin-1-ylmethyl)-phenyl]-amide] | 14 nM | 73 nM | 
COc1cc(NC(=O)c2sc3ncnc4c3c2NC(=O)N4c2ccc(Sc3ccccc3)cc2)ccc1CN1CCOCC1 [Cpd 219, 4-oxo-5-(4-phenylsulfanyl-phenyl)-4,5-dihydro-3H-1-thia-3,5,6,8-tetraaza-acenaphthylene-2-carboxylic acid (3-methoxy-4-morpholin-4-ylmethyl-phenyl)-amide] | 127 nM | 58 nM | 
